Laboratory results reported in patent US12590057B2, “Crystalline complexes” (Theracryf PLC, priority 2020, dated 2026).

Experiments:
Type in all cases: physicochemical
[1] = Preliminary stability study, related substances by HPLC; settings: 25° C./60% RH stability
Method: Analysis of samples of sulforaphane:alpha-cyclodextrin complexes as prepared herein were carried out by HPLC according to the following method: • Column—Phenomenex Gemini C18, 5 μm, 110 Å, 250×4.6 mm; • Mobile Phase A: Water (+0.1% TFA); • Mobile Phase B: Acetonitrile (+0.1% TFA); • Flow: 1.5 mL/min; • Injection Volume: 10 μL; • Column Temperature: 25° C.; • Run Time: 40 minutes; • Sample preparation—Accurately weighed and transferred about 320 mg±30 mg of the sample to a 25-mL volumetric flask, added about 15 mL of diluent (70% water, 30% acetonitrile, 0.1% TFA) and mixed until dissolved. Diluted to volume with diluent and mixed. Transferred 3-4 mL to a syringe and filtered using a 0.45 PTFE filter, discarding the first 1-2 ml, and filtered into an autosampler vial and sealed with PTFE lined cap (prepared in duplicate); • HPLC Gradient according to Table 12
Sulforaphane and certain related impurity peaks are summarised in Table 13, Characterisation of the impurities was carried out by LC-MS and ^1H-NMR. Relative Retention Times (RRT) are based on the HPLC method described above.
Samples of Form 1 (batch ref. LS19-0004-S-8002), Form 3 prepared by minimally-agitated drying (Example 5.3; batch ref. 491-PAL-18) and Form 3 prepared by continuously-agitated filter drying (Example 5B—trial 5; batch ref. 00173-005) were stored at 5° C. (Table 14) and at 25° C./60% RH (Table 15) for 8 weeks in 60 ml Duma® bottles fitted with 45 mm Duma® caps and samples were analysed by HPLC according to the above method.

[2] = XRPD physical form after storage; settings: days 7, 9 and 29 after removal from drying oven, ambient conditions
Method: XRPD diffractograms were collected on a PANalytical Empyrean diffractometer using Cu Kα radiation (45 kV, 40 mA) in transmission geometry. A 0.5° sat, 4 mm mask and 0.04 rad Soller slits with a focusing mirror were used on the incident beam. A PIXcel^3D detector, placed on the diffracted beam, was fitted with a receiving slit and 0.04 rad Soller slits. The software used for data collection was X'Pert Data Collector using X'Pert Operator Interface. The data were analysed and presented using Diffrac Plus EVA or HighScore Plus.
After removal from the vacuum oven (day 0), Example 3 was reanalysed by XRPD in reflection mode on days 7, 9 and 29.
In a separate study, samples of Form 3 (Example 5.3; batch ref. 491-PAL-18) having an initial water content by KF of 2.3% w/w were tested for water content at various time points after storage double bagged in a HDPE bottle under various conditions as shown in Table 17.

[3] = Aqueous manipulation (slurry in water, XRPD)
Method: Example 3—Form 3 (100 mg) was placed in a 4 ml vial, to which H2O (200 μl, 2 volumes) was added. The sample was capped and left at ambient temperature overnight. A spatula fill of the slurry was placed in a well and analysed by XRPD in transmission mode. The XRPD analysis was repeated every 5 minutes for 36 minutes on the same sample in the well. An XRPD was recorded 4 hours later too.

[4] = Compression testing; settings: 20 kg, 50 kg and 100 kg for 2 minutes each
Method: 15 mg samples of Example 3 (Form 3) were compressed into 3 mm recess discs under 20 kg, 50 kg and 100 kg of pressure for 2 minutes each.

[5] = Storage at high humidity and/or elevated temperature
Method: A sample of Example 3 (Form 3) was stored at 25° C. and 97% RH for 7 days.
A sample of Example 3 (Form 3) was stored at 40° C. and 75% RH for 7 days.

Row | SMILES | Related substances, HPLC RRT 0.56 (Dimer) ([1]; 8 wk) [% Area] | Related substances, HPLC RRT 0.60 (α-CD adduct) ([1]; 8 wk) [% Area] | Related substances, HPLC RRT 1.14 (Mixed dimer) ([1]; 8 wk) [% Area] | Related substances, HPLC RRT 1.21 (Erysolin) ([1]; 8 wk) [% Area] | Related substances, HPLC RRT 1.58 (Thioether dimer) ([1]; 8 wk) [% Area] | Related substances, Total Impurities ([1]; 8 wk) [% Area] | Related substances, HPLC RRT 0.56 (Dimer) ([1]; Initial) [% Area] | Related substances, HPLC RRT 0.60 (α-CD adduct) ([1]; Initial) [% Area] | Related substances, HPLC RRT 1.14 (Mixed dimer) ([1]; Initial) [% Area] | Related substances, HPLC RRT 1.21 (Erysolin) ([1]; Initial) [% Area] | Related substances, HPLC RRT 1.58 (Thioether dimer) ([1]; Initial) [% Area] | Related substances, Total Impurities ([1]; Initial) [% Area] | solid state form by XRPD (reflection mode) [2] | form by XRPD when slurried in water ([3]; 2 volumes H2O, ambient temperature overnight, XRPD after 14 and 36 mins) | form by XRPD after slurry sample left at ambient conditions ([3]; 4 further hours at ambient conditions) | decomposition by 1H-NMR after compression [4] | form by XRPD after compression [4] | decomposition by 1H-NMR ([5]; 25° C. and 97% RH for 7 days) | form by XRPD ([5]; 25° C. and 97% RH for 7 days) | decomposition by 1H-NMR ([5]; 40° C. and 75% RH for 7 days)
1 | C[S+]([O-])CCCCN=C=S.OCC1OC2OC3C(CO)OC(OC4C(CO)OC(OC5C(CO)OC(OC6C(CO)OC(OC7C(CO)OC(OC1C(O)C2O)C(O)C7O)C(O)C6O)C(O)C5O)C(O)C4O)C(O)C3O (centres unmarked) [Form 1] | 0.20 | 0.10 | 0.06 | 0.30 | <0.05 | 0.99 | 0.19 | 0.06 | <0.05 | 0.28 | <0.05 | 0.90 |  |  |  |  |  |  |  | 
2 | C[S+]([O-])CCCCN=C=S.OC[C@H]1O[C@@H]2O[C@H]3[C@H](O)[C@@H](O)[C@@H](O[C@H]4[C@H](O)[C@@H](O)[C@@H](O[C@H]5[C@H](O)[C@@H](O)[C@@H](O[C@H]6[C@H](O)[C@@H](O)[C@@H](O[C@H]7[C@H](O)[C@@H](O)[C@@H](O[C@H]1[C@H](O)[C@H]2O)O[C@@H]7CO)O[C@@H]6CO)O[C@@H]5CO)O[C@@H]4CO)O[C@@H]3CO [Form 3] |  |  |  |  |  |  |  |  |  |  |  |  | still existed as Form 3 | converted to Form 2 | converted from Form 2 to Form 1 | No decomposition | still existed as Form 3 | no decomposition was evident | converted at this very high humidity level to Form 1 | some decomposition had occurred
